Target: T1, CYP2D6 (Homo sapiens, UniProt P10635)
T1 construct: consisting of pooled HLMs (0.5 mg/ml) or RLMs (1 mg/ml) and an NADPH-regenerating system; tissue Corning Gentest Corporation; host or cells: pooled human liver microsomes (n = 20)
Assay: CYP2D6 inhibition (dextromethorphan O-demethylation) in pooled human liver microsomes, cocktail LC-MS/MS
Format: in vitro ADME
Procedure: Microsomal incubation was carried out at 37 °C in a mixture of 200 μl in 0.05 M Tris/HCl buffer (pH 7.4) consisting of pooled HLMs (0.5 mg/ml) or RLMs (1 mg/ml) and an NADPH-regenerating system including MgCl2 (5 mM), G6P (10 mM), G6PDH (0.4 U/ml) and NADP (1 mM). Substrates were added into the incubation mixture and obtained the final concentrations (10 μM phenacetin for CYP1A2, 20 μM bupropion for CYP2B1/6, 20 μM tolbutamide for CYP2C9/11, 5 μM dextromethorphan for CYP2D1/6, 20 μM chlorzoxazone for CYP2E1 and 10 μM midazolam for CYP3A2/4), which were close to Km respectively. The proportion of organic solvent was not higher than 1% (v/v) in the incubation mixture. After pre-incubation for 5 min, the reaction was initiated by addition of NADP. Incubations were performed for 20 min, stopped by adding 200 μl ice-cold acetonitrile. And then 20 μl internal standard solution was added (3-acetamidophenol 2 μg/ml, chlorpropamide 2 μg/ml and mebendazole 2 μg/ml). The solution was mixed thoroughly for 3 min and centrifuged for 10 min at 16,000 × g at 4 °C. The supernatant (60 μl) was transferred to autosampler vials, and 2 μl was injected into LC-MS/MS system.
The IC50 (concentration of inhibitor to cause 50% inhibition of original enzyme activity) values were determined with the same incubation condition above. The specific concentrations of plumbagin were ranged from 0.1 μM to 50 μM. The IC50 values were calculated by plotting relative activities over the logarithm of plumbagin concentrations using GraphPad Prism 5.0 (GraphPad software Inc., CA, USA).
Cocktail probe substrates were then added and incubated for 20 min. Reactions were stopped with 200 μl ice-cold acetonitrile. The samples were treated according to the microsomal incubation method and then injected into LC-MS/MS for analysis.
Kinetic studies were performed for determining the types of inhibition on CYP by plumbagin. Pooled HLMs (0.5 mg/ml) or RLMs (1 mg/ml) with plumbagin (1 μM, 2 μM, 5 μM and 10 μM) were incubated in 0.05 M Tris/HCl buffer (pH 7.4) for 20 min at 37 °C. A series of concentrations for cocktail probe substrates were used: 2.5–20 μM phenacetin for CYP1A2; 5–40 μM bupropion for CYP2B1/6; 5–40 μM tolbutamide for CYP2C9/11; 1.25–10 μM dextromethorphan for CYP2D1/6; 5–40 μM chlorzoxazone for CYP2E1; 2.5–80 μM midazolam for CYP3A2; and 0.625–5 μM midazolam for CYP3A4. Enzyme kinetics as well as statistical analysis were performed using GraphPad Prism 5.0.
All data were presented as mean ± SD. The IC50 values were fitted by non-linear regression analysis using GraphPad Prism 5.0. The kinetic parameters were obtained by fitting velocity data to kinetic models (Michaelis-Menten) using GraphPad Prism 5.0. The Lineweaver-Burk Plot (the reciprocal of reaction velocities versus the reciprocal of substrates concentrations) was used to determine the quality of fit to a specific inhibition model. The inhibition constant (Ki) was obtained by a secondary plot using the slopes of the primary Lineweaver-Burk Plot (Km/Vmax versus inhibitor concentrations). αKi was obtained from a secondary plot using the y-intercepts of the Lineweaver-Burk plot (1/Vmax versus inhibitor concentrations). All results were analyzed in quadruplicate. One-way analysis of variance was used to estimate the significance of differences. There was statistical significance between control and test groups if p < 0.05.

T1 sequence (P10635 whole entry): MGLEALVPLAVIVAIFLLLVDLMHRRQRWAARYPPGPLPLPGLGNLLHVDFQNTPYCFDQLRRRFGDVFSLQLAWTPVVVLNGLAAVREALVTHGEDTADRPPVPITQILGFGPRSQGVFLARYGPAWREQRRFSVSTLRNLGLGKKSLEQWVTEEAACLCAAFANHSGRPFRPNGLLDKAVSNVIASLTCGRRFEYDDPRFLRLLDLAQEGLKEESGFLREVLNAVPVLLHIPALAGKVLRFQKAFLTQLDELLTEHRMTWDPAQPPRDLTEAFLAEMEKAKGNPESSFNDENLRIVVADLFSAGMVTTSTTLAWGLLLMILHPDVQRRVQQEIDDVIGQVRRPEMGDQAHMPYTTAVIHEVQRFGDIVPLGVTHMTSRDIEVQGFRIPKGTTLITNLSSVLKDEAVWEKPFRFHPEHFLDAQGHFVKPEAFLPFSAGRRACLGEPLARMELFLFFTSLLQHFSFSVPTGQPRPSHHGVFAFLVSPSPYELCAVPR

With `CC1=CC(=O)c2c(O)cccc2C1=O` [plumbagin, 5-hydroxy-2-methyl-1,4-naphthoquinone] the IC50 was 10.2 µM, the Type of inhibition was “mixed-type” and the Ki (HLMs, secondary Lineweaver-Burk plot, dextromethorphan 1.25-10 μM) was 1.46 µM. The α (human, 20 min, pH 7.4) was 0.66 and the αKi (human, 20 min, pH 7.4) was 2.22 µM.

Reference: PMC4916434, “Evaluation of the inhibition potential of plumbagin against cytochrome P450 using LC-MS/MS and cocktail approach” (Scientific Reports, 2016)
